From patent US10072014B2 (Janssen Pharmaceutica NV, priority 2014, dated 2018)

Assays:
human mGlu2 receptor = target: T1, human mGlu2 receptor (Homo sapiens, UniProt Q14416); experiment: [35S]GTPγS binding assay, negative allosteric modulation of mGluR2; type: biochemical; conditions: for Emax: maximal % inhibition relative to the control glutamate response (EC80 glutamate), read-out: GTPγS-hmGluR2 anGT Emax; for IC50: membranes from CHO cells transfected with human mGlu2 receptor, glutamate 60 μM (~EC80), read-out: GTPγS-hmGluR2 anGT pIC50 (converted)
T1 construct: expressed in transfected cells; host or cells: CHO cells
Source text: The compounds provided in the present invention are negative allosteric modulators of mGluR2. These compounds appear to inhibit glutamate responses by binding to an allosteric site other than the glutamate binding site. The response of mGluR2 to a concentration of glutamate is decreased when compounds of Formula (I) are present. Compounds of Formula (I) are expected to have their effect substantially at mGluR2 by virtue of their ability to reduce the function of the receptor. The effects of negative allosteric modulators tested at mGluR2 using the [^35S]GTPγS binding assay method described below and which is suitable for the identification of such compounds, and more particularly the compounds according to Formula (I), are shown in Table 7.
1) [^35S]GTPγS Binding Assay
The [^35S]GTPγS binding assay is a functional membrane-based assay used to study G-protein coupled receptor (GPCR) function whereby incorporation of a non-hydrolysable form of GTP, [^35S]GTPγS (guanosine 5′-triphosphate, labelled with […] ^35S), is measured. The G-protein a subunit catalyzes the exchange of guanosine 5′-diphosphate (GDP) by guanosine triphosphate (GTP) and on activation of the GPCR by an agonist, [^35S]GTPγS, becomes incorporated and cannot be cleaved to continue the exchange cycle (Harper (1998) Current Protocols in Pharmacology 2.6.1-10, John Wiley & Sons, Inc.). […] Here we describe the use of the [^35S]GTPγS binding assay using membranes from cells transfected with the human mGlu2 receptor and adapted from Schaffhauser et al. (Molecular Pharmacology, 2003, […]) for the detection of the negative allosteric modulation (NAM) properties of the compounds of this invention.
CHO-cells were cultured to pre-confluence and stimulated with 5 mM butyrate for 24 h. Cells were then collected by scraping in PBS and cell suspension was centrifuged (10 min at 4000 RPM in benchtop centrifuge). Supernatant was discarded and pellet gently resuspended in 50 mM Tris-HCl, pH 7.4 by mixing with an Ultra Turrax homogenizer. The suspension was centrifuged at 12,400 RPM (Sorvall F14S-6x250Y) for 10 minutes and the supernatant discarded. The pellet was homogenized in 5 mM Tris-HCl, pH 7.4 using an Ultra Turrax homogenizer and centrifuged again (13,000 RPM, 20 min, 4° C.). The final pellet was resuspended in 50 mM Tris-HCl, pH 7.4 and stored at −80° C. in appropriate aliquots before use. Protein concentration was determined by the Bradford method (Bio-Rad, USA) with bovine serum albumin as standard.
[^35S]GTPγS Binding Assay
Measurement of mGluR2 negative allosteric modulatory activity of test compounds was performed as follows. Test compounds and glutamate were diluted in assay buffer containing 10 mM HEPES acid, 10 mM HEPES salt, pH 7.4, 100 mM NaCl, 3 mM MgCl2 and 10 μM GDP. Human mGlu2 receptor-containing membranes were thawed on ice and diluted in assay buffer supplemented with 18 μg/ml saponin. Membranes were pre-incubated with compound together with a predefined (˜EC80) concentration of glutamate (60 μM) for 30 min at 30° C. After addition of [^35S]GTPγS (f.c. 0.1 nM), assay mixtures were shaken briefly and further incubated to allow [^35S]GTPγS incorporation on activation (30 minutes, 30° C.). Final assay mixtures contained 7 μg of membrane protein in 10 mM HEPES acid, 10 mM HEPES salt, pH 7.4, 100 mM NaCl, 3 mM MgCl2, 10 μM GDP and 10 μg/ml saponin. Total reaction volume was 200 μl. Reactions were terminated by rapid filtration through Unifilter-96 GF/B plates (Perkin Elmer, Massachusetts, USA) using a 96-well filtermate universal harvester. Filters were washed 6 times with ice-cold 10 mM NaH2PO4/10 mM Na2HPO4, pH 7.4. Filters were then air-dried, and 30 μl of liquid scintillation cocktail (Microscint-O) was added to each well. Membrane-bound radioactivity was counted in a Topcount.
The concentration-response curves of representative compounds of the present invention were generated using the Lexis software interface (developed at J&J). […]

rats = experiment: Reversal of the effect of the mGluR2 PAM JNJ-42153605-induced inhibition of scopolamine-induced hyperlocomotion; type: in vivo; conditions: Rattus norvegicus, PO, criterion for reversal: total distance >1500 cm, read-out: ED50 SCOP JNJ-42153605
Experimental: 2) Reversal of the Effect of the mGluR2 PAM JNJ-42153605-induced Inhibition of Scopolamine-induced Hyperlocomotion Apparatus
Motor activity was measured in microprocessor-based motor activity arenas (closed gray PVC cylinders with a height of 39 cm and a diameter of 31 cm). Each arena was placed on an infrared LED (8×8 LEDs) lit box (white PVC squared box; 40×40 cm^2; height 12.5 cm. An infrared-sensitive tube camera and a white light source were mounted to the ceiling above the observation chamber to track the animal. The total distance traveled (cm) was recorded and analyzed using the Noldus Ethovision XT Video Tracking System (Version 7.0.418; Noldus, Wageningen, The Netherlands). The intensity of the light within the activity cages (measured in the centre at the level of the floor) ranged between 4 and 8 LUX.
The rats were pretreated with test compound or vehicle at 60 min before the start of the activity recordings and placed into individual cages. The rats were challenged with JNJ-42153605 (3-(cyclopropylmethyl)-7-(4-phenylpiperidin-1-yl)-8-(trifluoromethyl)-[1,2,4]triazolo[4,3-a]pyridine; WO2010/130424; Cid et al. J. Med. Chem. 2012, 55, 8770-8789) (20 mg/kg, i.v.) 30 min before the start of the activity recording combined with scopolamine (0.16 mg/kg, i.v.) just before the start of the activity measurements. Immediately after the injection of scopolamine, the rats were placed into the activity monitors and total distance traveled over the first 30 min was measured.
Solvent-pretreated Control Rats.
Animals receiving the combination of JNJ-42153605 and scopolamine (n=433) almost always traveled a distance of less than 1500 cm (<1500 cm) (only 2.5% of the control rats traveled a distance of more than 1500 cm (>1500 cm)). On the other hand, animals challenged with scopolamine alone (n=215) always traveled a total distance of more than 1500 cm (>1500 cm) and almost always (in 95.8% of the rats) a distance of more than 4400 cm (>4400 cm). […] For reversal of the inhibitory effect of JNJ-42153605 on the scopolamine-induced hyperlocomotion, the following all-or-none criteria were adopted: (1) reversal: total distance>1500 cm.

T1 sequence (Q14416 19-872): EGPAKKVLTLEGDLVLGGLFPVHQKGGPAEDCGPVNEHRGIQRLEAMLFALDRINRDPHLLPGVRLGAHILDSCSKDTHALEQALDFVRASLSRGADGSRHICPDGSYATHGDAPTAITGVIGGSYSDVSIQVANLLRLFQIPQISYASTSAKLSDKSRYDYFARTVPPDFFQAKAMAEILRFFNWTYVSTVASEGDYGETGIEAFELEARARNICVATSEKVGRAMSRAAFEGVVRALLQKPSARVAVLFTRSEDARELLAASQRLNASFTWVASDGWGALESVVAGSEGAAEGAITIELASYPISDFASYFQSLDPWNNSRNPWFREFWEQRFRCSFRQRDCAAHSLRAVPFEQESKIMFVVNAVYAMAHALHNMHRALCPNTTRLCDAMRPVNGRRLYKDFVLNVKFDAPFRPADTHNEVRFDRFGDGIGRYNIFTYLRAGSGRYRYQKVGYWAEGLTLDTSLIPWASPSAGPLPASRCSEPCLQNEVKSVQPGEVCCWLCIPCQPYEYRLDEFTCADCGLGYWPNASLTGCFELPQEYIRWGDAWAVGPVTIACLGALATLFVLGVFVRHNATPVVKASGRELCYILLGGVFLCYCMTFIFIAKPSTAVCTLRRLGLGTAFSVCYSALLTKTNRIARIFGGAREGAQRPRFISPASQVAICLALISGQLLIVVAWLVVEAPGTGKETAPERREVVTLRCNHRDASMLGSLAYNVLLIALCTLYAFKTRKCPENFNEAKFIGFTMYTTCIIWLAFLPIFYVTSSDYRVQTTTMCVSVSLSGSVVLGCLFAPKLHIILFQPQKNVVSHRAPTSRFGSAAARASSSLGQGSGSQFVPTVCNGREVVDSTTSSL

Compound | Emax (human mGlu2 receptor) | IC50 (human mGlu2 receptor) | melting point | ED50 (rats)
C[C@H]1CN(c2ccc(C(F)(F)F)cc2)C(=O)c2c(-c3nc[nH]c3Br)cnn21 [Compound 1] | 99.3% | 0.0115 µM | 228.68 °C | 
C[C@H]1CN(c2ccc(C(F)(F)F)cc2)C(=O)c2c(-c3c[nH]c(C4CC4)n3)cnn21 [Compound 2] | 103% | 0.02 µM |  | 
C[C@H]1CN(c2ccc(C(F)(F)F)cc2)C(=O)c2c(-c3nc(-c4ccc(N)nc4)[nH]c3Cl)cnn21 [Compound 3] | 108% | 0.0251 µM |  | 
C[C@H]1CN(c2ccc(C(F)(F)F)cc2)C(=O)c2c(-c3c[nH]c(-c4ccccc4)n3)cnn21 [Compound 5] | 105% | 0.0275 µM | 119.88 °C | 
CC(C)c1nc(-c2cnn3c2C(=O)N(c2ccc(C(F)(F)F)cc2)C[C@@H]3C)c[nH]1 [Compound 6] | 104% | 0.0309 µM | 156.03 °C | 
Cc1nc(C2CC2)[nH]c1-c1cnn2c1C(=O)N(c1ccc(C(F)(F)F)cc1)C[C@@H]2C [Compound 7] | 106% | 0.0316 µM |  | > 0.63 mg/kg
C[C@H]1CN(c2ccc(C(F)(F)F)cc2)C(=O)c2c(-c3cnc(C(F)(F)F)[nH]3)cnn21 [Compound 8] | 108% | 0.0331 µM |  | 
C[C@H]1CN(c2ccc(C(F)(F)F)cc2)C(=O)c2c(-c3nc(-c4ccc(N)nc4)[nH]c3Br)cnn21 [Compound 9] | 108% | 0.0347 µM |  | 
C[C@H]1CN(c2ccc(C(F)(F)F)cc2)C(=O)c2c(-c3cnc(C#N)[nH]3)cnn21 [Compound 10] | 107% | 0.0363 µM | 219.19 °C | 
C[C@H]1CN(c2ccc(C(F)(F)F)cc2)C(=O)c2c(-c3cnc[nH]3)cnn21 [Compound 12] | 101% | 0.0708 µM | 176.92 °C | 
COCc1ncc(-c2cnn3c2C(=O)N(c2ccc(C(F)(F)F)cc2)C[C@@H]3C)[nH]1 [Compound 13] | 104% | 0.0832 µM |  | 
Cc1[nH]c(-c2cccnc2)nc1-c1cnn2c1C(=O)N(c1ccc(C(F)(F)F)cc1)C[C@@H]2C [Compound 14] | 103% | 0.11 µM | 244.74 °C | 
CNc1ncc(-c2cnn3c2C(=O)N(c2ccc(C(F)(F)F)cc2)C[C@@H]3C)[nH]1 [Compound 15] | 102% | 0.17 µM | 205 °C | 
Cc1[nH]c(-c2ccccn2)nc1-c1cnn2c1C(=O)N(c1ccc(C(F)(F)F)cc1)C[C@@H]2C [Compound 17] | 106% | 0.145 µM | 198.73 °C | 
C[C@H]1CN(c2ccc(Cl)c(Cl)c2)C(=O)c2c(-c3c[nH]c(-c4ccc(N)nc4)n3)cnn21 [Compound 19] | 108% | 0.0501 µM |  | 
Cc1cc(N2C[C@H](C)n3ncc(-c4c[nH]c(-c5ccc(N)nc5)n4)c3C2=O)ccc1C(F)(F)F [Compound 20] | 107% | 0.0537 µM | 275.27 °C | 
Cc1nc(-c2cnn3c2C(=O)N(c2ccc(C(F)(F)F)c(C#N)c2)C[C@@H]3C)c[nH]1 [Compound 23] | 104% | 0.0646 µM | 226.81 °C | 
Cc1ncc(-c2cnn3c2C(=O)N(c2ccc(C(F)(F)F)c(CF)c2)C[C@@H]3C)[nH]1 [Compound 24] | 106% | 0.0158 µM | 174.28 °C | 
C[C@H]1CN(c2ccc(C(F)(F)F)c(Cl)c2)C(=O)c2c(-c3c[nH]c(C#N)n3)cnn21 [Compound 29] | 111% | 0.00389 µM |  | 
CNC(=O)c1nc(-c2cnn3c2C(=O)N(c2ccc(C(F)(F)F)c(Cl)c2)C[C@@H]3C)c[nH]1 [Compound 35] | 111% | 0.038 µM |  | 
C[C@H]1CN(c2ccc(C(F)(F)F)c(Cl)c2)C(=O)c2c(-c3c[nH]c(C(=O)N(C)C)n3)cnn21 [Compound 36] | 106% | 0.11 µM |  | 
C[C@H]1CN(c2ccc(C(F)(F)F)c(Cl)c2)C(=O)c2c(-c3c[nH]c(-c4cccnc4)n3)cnn21 [Compound 37] | 109% | 0.0129 µM | 188.06 °C | 
Cc1[nH]c(-c2ccccn2)nc1-c1cnn2c1C(=O)N(c1ccc(C(F)(F)F)c(Cl)c1)C[C@@H]2C [Compound 38] | 105% | 0.0214 µM | 232.11 °C | 
C[C@H]1CN(c2ccc(C(F)(F)F)c(Cl)c2)C(=O)c2c(-c3c[nH]c(-c4ccccn4)n3)cnn21 [Compound 39] | 104% | 0.00832 µM |  | 
C[C@H]1CN(c2ccc(C(F)(F)F)cc2)C(=O)c2c(-c3cnc(C4CCC4)[nH]3)cnn21 [Compound 40] | 107% | 0.00692 µM |  | 
Cc1cc(-c2ncc(-c3cnn4c3C(=O)N(c3ccc(C(F)(F)F)cc3)C[C@@H]4C)[nH]2)ccn1 [Compound 41] | 106% | 0.166 µM |  | 
C[C@H]1CN(c2ccc(C(F)(F)F)c(Cl)c2)C(=O)c2c(-c3c[nH]c(C4CCC4)n3)cnn21 [Compound 42] | 109% | 0.00186 µM | 173.18 °C | 
C[C@H]1CN(c2ccc(C(F)(F)F)c(Cl)c2)C(=O)c2c(-c3c[nH]c(-c4cnccn4)n3)cnn21 [Compound 43] | 106% | 0.0049 µM | 227.75 °C | 
C[C@H]1CN(c2ccc(C(F)(F)F)cc2)C(=O)c2c(-c3c[nH]c(-c4cnccn4)n3)cnn21 [Compound 44] | 103% | 0.0389 µM |  | 
C[C@H]1CN(c2ccc(C(F)(F)F)c(Cl)c2)C(=O)c2c(-c3nc(-c4ccc(N)nc4)[nH]c3C#N)cnn21 [Compound 45] | 106% | 0.0347 µM |  | 
